# Where a SMILES comes first, the peptide text is derived from it.
# T1: Solute carrier family 15 member 2 (Homo sapiens, UniProt Q16348)
# T1 sequence (Q16348 whole entry): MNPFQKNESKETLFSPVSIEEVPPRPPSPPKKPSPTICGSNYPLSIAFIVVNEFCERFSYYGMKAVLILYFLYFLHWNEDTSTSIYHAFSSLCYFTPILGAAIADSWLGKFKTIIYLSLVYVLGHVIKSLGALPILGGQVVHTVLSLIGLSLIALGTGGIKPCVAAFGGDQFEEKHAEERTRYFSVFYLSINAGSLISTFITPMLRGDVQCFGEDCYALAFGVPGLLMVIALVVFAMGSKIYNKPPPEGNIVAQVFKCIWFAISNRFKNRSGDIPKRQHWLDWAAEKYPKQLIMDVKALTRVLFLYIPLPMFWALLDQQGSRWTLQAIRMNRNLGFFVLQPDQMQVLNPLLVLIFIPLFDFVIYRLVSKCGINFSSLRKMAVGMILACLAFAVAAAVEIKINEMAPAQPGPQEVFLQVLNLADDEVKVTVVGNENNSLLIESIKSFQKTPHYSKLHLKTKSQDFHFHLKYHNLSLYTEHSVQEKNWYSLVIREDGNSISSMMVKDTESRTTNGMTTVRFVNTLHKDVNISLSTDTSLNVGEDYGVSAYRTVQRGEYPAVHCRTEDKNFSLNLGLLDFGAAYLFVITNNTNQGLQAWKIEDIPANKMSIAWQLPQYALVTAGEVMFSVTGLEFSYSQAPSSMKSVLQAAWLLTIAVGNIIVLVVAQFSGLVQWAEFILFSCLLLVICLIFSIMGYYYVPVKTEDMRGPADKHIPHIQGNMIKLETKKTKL
# T2: Solute carrier family 15 member 1 (Homo sapiens, UniProt P46059)
# T2 sequence (P46059 whole entry): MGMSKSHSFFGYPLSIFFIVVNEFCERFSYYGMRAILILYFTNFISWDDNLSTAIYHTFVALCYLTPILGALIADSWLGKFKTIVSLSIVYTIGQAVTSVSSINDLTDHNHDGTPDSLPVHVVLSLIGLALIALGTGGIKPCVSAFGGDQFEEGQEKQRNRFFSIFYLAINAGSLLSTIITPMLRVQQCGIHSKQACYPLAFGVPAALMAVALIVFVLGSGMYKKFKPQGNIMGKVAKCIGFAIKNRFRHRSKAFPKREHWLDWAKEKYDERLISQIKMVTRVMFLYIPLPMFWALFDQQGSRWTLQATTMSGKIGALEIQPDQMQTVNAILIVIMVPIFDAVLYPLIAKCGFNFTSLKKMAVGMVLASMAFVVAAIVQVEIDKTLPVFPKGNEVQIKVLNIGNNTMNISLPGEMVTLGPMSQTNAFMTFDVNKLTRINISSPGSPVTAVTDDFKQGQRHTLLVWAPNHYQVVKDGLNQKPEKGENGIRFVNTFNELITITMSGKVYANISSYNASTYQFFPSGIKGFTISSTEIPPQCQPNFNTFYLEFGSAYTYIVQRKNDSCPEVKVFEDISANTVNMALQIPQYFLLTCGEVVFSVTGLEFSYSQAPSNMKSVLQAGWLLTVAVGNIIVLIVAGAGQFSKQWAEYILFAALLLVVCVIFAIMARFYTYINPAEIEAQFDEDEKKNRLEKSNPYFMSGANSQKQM
# Assays:
# Format in all cases: functional, cell-based
# [1] = target: T1, Solute carrier family 15 member 2; experiment: TP_TRANSPORTER: inhibition of Gly-Sar uptake in PEPT2-expressing HeLa cells
# [2] = target: T2, Solute carrier family 15 member 1; experiment: TP_TRANSPORTER: inhibition of Gly-Sar uptake in PEPT1-expressing HeLa cells
# [3] = substrate: CN(CC(=O)O)C(=O)CN; experiment: TP_TRANSPORTER: uptake in PEPT2-expressing HeLa cells
Ki [1],Ki [2],Molecule,Km [3]
11 µM,117 µM,C[C@H](N)C(=O)N[C@@H](CCCCN)C(=O)O (H-Ala-Lys-OH),
8 µM,108 µM,NCCCC[C@H](NC(=O)[C@@H](N)CC(=O)O)C(=O)O (H-Asp-Lys-OH),

# The next lines start with the molecule.
Molecule,Ki [1],Ki [2],Km [3]
C[C@H](N)C(=O)N[C@@H](C)C(=O)O (H-Ala-Ala-OH),6 µM,78 µM,
C[C@H](N)C(=O)N[C@@H](CC(=O)O)C(=O)O (H-Ala-Asp-OH),18 µM,78 µM,
C[C@H](NC(=O)[C@@H](N)CCCCN)C(=O)O (H-Lys-Ala-OH),23 µM,419 µM,
"Solute carrier family 15 member 2 (Homo sapiens), Q16348 (protein) MNPFQKNESKETLFSPVSIEEVPPRPPSPPKKPSPTICGSNYPLSIAFIVVNEFCERFSYYGMKAVLILYFLYFLHWNEDTSTSIYHAFSSLCYFTPILGAAIADSWLGKFKTIIYLSLVYVLGHVIKSLGALPILGGQVVHTVLSLIGLSLIALGTGGIKPCVAAFGGDQFEEKHAEERTRYFSVFYLSINAGSLISTFITPMLRGDVQCFGEDCYALAFGVPGLLMVIALVVFAMGSKIYNKPPPEGNIVAQVFKCIWFAISNRFKNRSGDIPKRQHWLDWAAEKYPKQLIMDVKALTRVLFLYIPLPMFWALLDQQGSRWTLQAIRMNRNLGFFVLQPDQMQVLNPLLVLIFIPLFDFVIYRLVSKCGINFSSLRKMAVGMILACLAFAVAAAVEIKINEMAPAQPGPQEVFLQVLNLADDEVKVTVVGNENNSLLIESIKSFQKTPHYSKLHLKTKSQDFHFHLKYHNLSLYTEHSVQEKNWYSLVIREDGNSISSMMVKDTESRTTNGMTTVRFVNTLHKDVNISLSTDTSLNVGEDYGVSAYRTVQRGEYPAVHCRTEDKNFSLNLGLLDFGAAYLFVITNNTNQGLQAWKIEDIPANKMSIAWQLPQYALVTAGEVMFSVTGLEFSYSQAPSSMKSVLQAAWLLTIAVGNIIVLVVAQFSGLVQWAEFILFSCLLLVICLIFSIMGYYYVPVKTEDMRGPADKHIPHIQGNMIKLETKKTKL",,,74 µM
